Assay results from article PMC2693028 (ChemMedChem, 2008).
In brackets after ≈: the same amount, converted by molar mass. Several values for one entry are separate records, joined by “and”; a condition that tells them apart may be missing. Equal values may be shown once. Read-outs that look alike come from different tables or passages of the source.

Key:
[1] = system: Pseudomonas aeruginosa (ATCC strain 27853); test: microbe, parasite or virus in culture; type: cell-based; settings: ATCC27853
HeLa cells [2] = test: cells; settings: Homo sapiens, read-out: EC50 against HeLa cells
[3] = system: Klebsiella pneumoniae (ATCC strain 700603); test: microbe, parasite or virus in culture; type: cell-based; settings: for MBC / MIC: Klebsiella pneumoniae, ATCC700603
[4] = system: Sterne strain B. anthracis; test: microbe, parasite or virus in culture; type: cell-based, Bacillus anthracis; settings: for MBC / MIC: Bacillus anthracis
[5] = system: Enterococcus fecalis (ATCC strain 29212); test: microbe, parasite or virus in culture; type: cell-based; settings: for MBC / MIC: Enterococcus, ATCC29212
MHS = test: cells; type: cell-based; settings: read-out: EC50 against MHS
[6] = system: Listeria monocytogenes (10403S); test: microbe, parasite or virus in culture; type: cell-based; settings: for MBC / MIC: Listeria monocytogenes
[7] = target: Enoyl reducase (ENR) from Bacillus anthracis (BaENR) (Bacillus anthracis, UniProt A0A6L8PBX8); test: biochemical; settings: IC50
Enoyl reducase (ENR) from Bacillus anthracis (BaENR), sequence (A0A6L8PBX8 1-256): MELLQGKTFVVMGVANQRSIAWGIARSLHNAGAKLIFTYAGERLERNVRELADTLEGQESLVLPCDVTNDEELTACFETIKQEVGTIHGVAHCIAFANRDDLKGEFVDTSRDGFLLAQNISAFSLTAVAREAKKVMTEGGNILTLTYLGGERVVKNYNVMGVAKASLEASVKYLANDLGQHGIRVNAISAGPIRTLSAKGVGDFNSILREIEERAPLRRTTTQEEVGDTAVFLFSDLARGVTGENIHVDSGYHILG

ΔANR B. anthracis [8] = test: microbe, parasite or virus in culture; type: cell-based, Bacillus anthracis
[9] = system: methicillin–resistant Staphylococcus aureus (ATCC strain 43300); test: microbe, parasite or virus in culture; type: cell-based
[10] = system: vancomycin–resistant Enterococcus (VRE) (ATCC strain 51299); test: microbe, parasite or virus in culture; type: cell-based; settings: for MBC / MIC: Enterococcus, ATCC51299|VRE
[11] = system: Escherchia coli (ATCC strain 25922); test: microbe, parasite or virus in culture; type: cell-based; settings: for MBC / MIC: Escherichia coli, ATCC25922
[12] = system: Staphylococcus aureus (ATCC strain 29213); test: microbe, parasite or virus in culture; type: cell-based; settings: ATCC29213|MSSA
HeLa cells [13] = settings: human
ENR in S. aurues = settings: cited from earlier work
PfENR = settings: cited from earlier work
ENR in E. coli = settings: cited from earlier work
ΔANR B. anthracis [14] = settings: cited from earlier work
[15] = Staphylococcus aureus, ATCC43300|MRSA

SMILES | MIC [1] [µg/mL] | EC50 (HeLa cells [2]) [µg/mL] | MBC [3] [µg/mL] | MIC [3] [µg/mL] | MBC [4] [µg/mL] | MIC [4] [µg/mL] | MBC [5] [µg/mL] | MIC [5] [µg/mL] | EC50 (MHS) [µg/mL] | MBC [6] [µg/mL] | MIC [6] [µg/mL] | IC50 [7] | MBC (ΔANR B. anthracis [8]; Bacillus anthracis) [µg/mL] | MIC [9] [µg/mL] | MBC [9, 15] [µg/mL] | MIC [9, 15] [µg/mL] | MBC [10] [µg/mL] | MIC [10] [µg/mL] | MBC [11] [µg/mL] | MIC [11] [µg/mL] | other results
O=[N+]([O-])c1ccc(Oc2ccc(Cl)cc2O)c(Cl)c1 [Compound 6, 5-Chloro-2-(2-chloro-4-nitrophenoxy)phenol] | > 25 | 29.3 (≈ 97.6 µM) | 12.5 (≈ 41.7 µM) | 1.8 ± 0.4 (≈ 6 µM) | 3.9 ± 0.8 (≈ 13 µM) | 1.9 ± 0.3 (≈ 6.33 µM) | 31.3 ± 6.3 (≈ 104 µM) | 4.4 ± 0.8 (≈ 14.7 µM) | 9.9 (≈ 33 µM) | 14.1 ± 3.9 (≈ 47 µM) | 2.8 ± 0.3 (≈ 9.33 µM) | 290 nM and 300 nM | 3.1 ± 1.1 (≈ 10.3 µM) | 0.3 ± 0.3 (≈ 1 µM) | 0.4 ± 0.1 (≈ 1.33 µM) | 0.3 (≈ 1 µM) | 37.5 ± 12.5 (≈ 125 µM) | 5.7 ± 0.6 (≈ 19 µM) | 12.5 (≈ 41.7 µM) | 0.3 ± 0.1 (≈ 1 µM) | MBC [12]: 2.9 ± 1.2 µg/mL (≈ 9.66 µM); MIC [12]: 0.1 ± 0.1 µg/mL (≈ 0.333 µM)
CCCc1ccc(Oc2ccc([N+](=O)[O-])cc2Cl)c(O)c1 [Compound 11, 2-(2-Chloro-4-nitrophenoxy)-5-propylphenol] | > 25 | 41.4 (≈ 135 µM) | 8.3 ± 2.1 (≈ 27 µM) | 1.8 ± 0.9 (≈ 5.85 µM) | 3.9 ± 0.8 (≈ 12.7 µM) | 1.9 (≈ 6.17 µM) | 12.5 (≈ 40.6 µM) | 4.4 ± 0.5 (≈ 14.3 µM) | 22.6 (≈ 73.4 µM) | 14.1 ± 3.9 (≈ 45.8 µM) | 2.8 ± 0.9 (≈ 9.1 µM) | 500 nM | 3.9 ± 0.8 (≈ 12.7 µM) | 0.3 ± 0.3 (≈ 0.975 µM) | 0.5 ± 0.2 (≈ 1.62 µM) | 0.3 (≈ 0.975 µM) | 15.6 ± 3.1 (≈ 50.7 µM) | 5.7 ± 0.3 (≈ 18.5 µM) | 1.2 ± 0.4 (≈ 3.9 µM) | 0.3 ± 0.2 (≈ 0.975 µM) | MBC/MIC [3]: 4.7; MBC/MIC [4]: 2.1; MBC/MIC [5]: 2.9; MBC/MIC [6]: 5.0; MBC/MIC (ΔANR B. anthracis [8]): 1.8; MIC (ΔANR B. anthracis [8]): 2.2 ± 0.0 µg/mL (≈ 7.15 µM); MIC (ΔANR B. anthracis [8]; Bacillus anthracis): 1.9 to 3.1 µg/mL (≈ 6.17 to 10.1 µM); EC50/MIC ratio (HeLa cells [13]): 15–20; MBC/MIC [9]: 1.9; MBC/MIC [10]: 2.7; MBC/MIC [11]: 4.5; MBC [12]: 2.9 ± 1.2 µg/mL (≈ 9.42 µM); MIC [12]: 0.1 ± 0.1 µg/mL (≈ 0.325 µM)
Oc1cc(Cl)ccc1Oc1ccc(Cl)cc1Cl [Triclosan] |  |  |  |  |  |  |  |  |  |  |  |  |  |  |  |  |  |  |  |  | IC50 (ENR in S. aurues): 70 nM; IC50 (PfENR): 73 nM; MIC (ΔANR B. anthracis [8]; Bacillus anthracis): 3.1 µg/mL (≈ 10.7 µM); IC50 (ENR in E. coli): 7250 nM; MIC (ΔANR B. anthracis [14]): 3.1 µg/mL (≈ 10.7 µM)
